{"source": "patent US11723907B2", "about": "“Anti-aging compounds” (THE CLEVELAND CLINIC FOUNDATION, priority 2017, dated 2023)", "experiment": "Non-enzymatic electron transfer from NAD(P)H to oxidized glutathione", "type": "biochemical", "settings": "potassium phosphate buffer pH 7.0, 37° C.", "protocol": "FIGS. 4A 4B provide graphs and schemes showing VA's mechanism of action. […] (A) Different concentrations of VA were incubated with GssG in potassium phosphate buffer at pH 7.0, 37° C. […] The effective concentrations of VA were similar to the detected for the extension of RLS in normal or progeroid cells. (B) The proposed molecular mechanism of glutathione reduction catalyzed by VA. The slightly acidic buffers (pH 7.0) supplemented with potassium (100 mM) were the preferable reaction conditions.\nLead compounds were tested on their possible catalytic amelioration of enzyme kinetics with all above mentioned proteins: recombinant and presented in cellular lysates.", "data": [{"smiles": "O=C1NC(=O)C(=NO)C(=O)N1", "note": "[VA, 2,4,5,6(1H,3H)-pyrimidine-tetrone 5-oxime]", "values": [{"measurement": "rate of NAD(P)H oxidation by GssG", "value": "substantially increase the reaction rate"}]}]}
